From patent publication US10294272B2, “Peptides with antagonistic activities against natural CXCR4” (Pharis Biotec GmbH, priority 2013, dated 2019)
No end group written: not given here.

Legend:
[1] = test system: TZM-bl cells or prestimulated PBMCs
Method: To assess cytotoxic effects TZM-bl cells or prestimulated PBMCs were incubated with increasing concentrations of peptides. Cell viability was determined using the CellTiter-Glo Luminescent Cell Viability Assay (PROMEGA, G7571) as recommended by the manufacturer. Values were derived from triplicate measurements. Vitality rates were calculated relative to ATP levels in PBS (no peptide) containing cells (100%). Data were recorded using a luminometer 10 minutes after adding reagent.

[2] = test system: SIV strains; test: TZM-bl infection assay, SIV; assay type: cell-based; conditions: effects relatively modest
Method: HIV-1, HIV-2 and SIV molecular clones differing in coreceptor tropism were generated by transient transfection of 293T cells with proviral DNA by the calcium phosphate method (CalPhos™ Mammalian Transfection Kit, Clon-tech). After overnight incubation, the transfection mixture was replaced by DMEM medium supplemented with 10% FCS, and virus stocks were harvested 48 hrs post-transfection. Subsequently, the culture supernatant was centrifuged for 5 min at 3000 rpm to remove cell debris. The resulting virus stock was quantified by p24 (HIV) or p27 (SIV) antigen ELISA. Virus stocks were either used immediately or stored in aliquots at −80° C.
TZM-bl reporter cells containing the LacZ reporter gene under the control of the HIV-1 promoter were seeded in 96-well F-bottom microtiter plates (Greiner Bio-One). On the following day, the cells were preincubated with various dilutions of the peptide of SEQ ID NO 16 or its derivatives for 1 hour and subsequently infected with HIV-1, HIV-2, and SIV. Infection rates were determined after 2 days using the one-step Tropix Gal-Screen Kit, as recommended by the manufacturer.

[3] = molecular target: T1, CXCR4 (Mus musculus, UniProt P70658); test: Asthma mouse model (OVA challenge); assay type: in vivo; conditions: mice, i.p., allergen challenge with OVA
T1 construct: from tissue; host or cells: live mice (C57Bl/6J for mobilization)
Method: Mice were sensitized by intraperitoneal (i.p.) injection on days 0, 1 and 2 of 50 μg ovalbumin (OVA, Sigma-Aldrich, A5503) adsorbed on 2 mg aluminium hydroxide (Sigma-Aldrich, 23918-6) in saline. Mice were challenged by intranasal (i.n.) instillation of 10 μg OVA in 25 μl saline (12.5 μl/nostril) or saline alone for control mice on days 5, 6 and 7 under anesthesia (50 mg/kg ketamine and 3.3 mg/kg xylazine, i.p.). the peptide of SEQ ID NO 16 or ALB409-423 in saline were administered i.p. (16 μmol/kg) two hours before each OVA challenge. Bronchoalveolar lavage (BAL) and differential cell counts were performed 24 h after the last OVA challenge as previously reported in (Rebber et al., 2012).

[4] = test system: DU145 cells; test: Cancer cell invasion assay; assay type: cell-based
Method: Cell invasion of cancer cells was assayed using a Biocoat Matrigel invasion chamber (BD BioCoat™ Matrigel™ Invasion Chamber) as recommended by the manufacturer. 5×10^4 DU145 cells (ATCC) were suspended in 300 μl serum-free RPMI (Gibco) containing 0.1% BSA (KPL) and then added to the upper chamber. 700 μl serum-free medium with or without 100 nM CXCL12 and various concentrations of the peptide of SEQ ID NO 16 were added to each lower chamber. The chambers were incubated for 24 h at 37° C. in a humid atmosphere of 5% CO2/95% air. The non-invading cells were removed from the upper surface of the membrane by scrubbing. Invaded cells toward the bottom of membrane were quantified using the CellTiter-Glo® Luminescent Cell Viability Assay kit as described above.

[5] = test system: Candida albicans; test: Antifungal activity against Candida; assay type: cell-based
[6] = test system: wild-type (wt) HIV-1 NL4-3 in PBMCs; test: PBMC infection assay; assay type: cell-based; conditions: concentrations ≥4 μg/ml
Method: Peripheral blood mononuclear cells were isolated from Buffy coat derived from the DRK-Blutspendedienst Baden-Württemberg-Hessen using Ficoll density centrifugation. 1×10^6 PBMC per ml were stimulated with 1 μg/ml phytohemagglutinine (PHA, Oxoid, #3085280) and 10 ng/ml Interleukin 2 (IL-2, Strathmann, #9511192) for three days. Thereafter, cells were pelleted and resuspended in IL-2 containing medium. 2×10^5 PBMC were seeded in 96 well F-bottom microtiter plates, peptides were added and cells were infected with […] p24 antigen of X4 or R5 tropic viruses. Supernatants containing progeny virus were taken at every 2-3 days post infection. Virus production was measured by p24 antigen ELISA (NIH AIDS reagent program). The mean p24 antigen values (ng/ml) were derived from triplicate infections±standard deviation.

[7] = test system: Staphylococus aureus; test: Antibacterial activity against Staphylococcus; assay type: cell-based

T1 sequence (P70658 whole entry): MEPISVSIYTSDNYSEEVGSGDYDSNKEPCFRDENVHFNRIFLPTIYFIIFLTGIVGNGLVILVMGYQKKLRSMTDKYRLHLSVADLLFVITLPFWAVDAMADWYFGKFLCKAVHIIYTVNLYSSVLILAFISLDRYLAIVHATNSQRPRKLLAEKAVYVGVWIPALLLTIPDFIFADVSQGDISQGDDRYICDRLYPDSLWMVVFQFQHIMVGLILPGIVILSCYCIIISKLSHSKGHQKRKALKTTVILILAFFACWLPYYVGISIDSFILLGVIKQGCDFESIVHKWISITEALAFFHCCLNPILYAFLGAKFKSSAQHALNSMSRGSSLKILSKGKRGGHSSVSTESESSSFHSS

Sequence: LVRYTKKVPQVSTPTL [Derivative 408-423, LVRYTKKVPQVSTPTL]
- cytotoxic effects [1]: did not display cytotoxic effects
- infection by SIV strains [2]: inhibits infection
- CXCR4-dependent infiltration of neutrophils, lymphocytes and eosinophils into the airways [3]: significantly reduced
- infiltration of macrophages [3]: markedly reduced
- tumor cell invasion in vitro [4]: prevented
- effects against Candida albicans [5]: only modest effects
- Replication of wild-type HIV-1 NL4-3 in PBMCs [6]: markedly suppressed
- effects against Staphylococus aureus [7]: only modest effects
